Reference: patent publication US4981860A, “Pyridinium nitrate, composition containing same and their use for inhibiting platelet activating factor” (Takeda Chemical Industries, Ltd., priority 1989, dated 1991)
Where two headings read alike, the source gives them in different places.

Columns and labels:
[1] = tested on: PAF-induced rabbit platelet aggregation; assay: Inhibition of PAF-induced rabbit platelet aggregation (platelet rich plasma); assay type: cell-based; settings: Oryctolagus cuniculus, read-out: rate of inhibition of PAF-induced rabbit platelet aggregation
Experimental: Blood was drawn from a male rabbit directly by cardiopuncture with a syringe containing 3.15% citric acid as an anticoagulant (one volume to 9 volumes of blood). By centrifugation at 800 rpm for 10 minutes at room temperature, platelet rich plasma (PRP) was obtained. The residual blood was centrifuged again at 3000 rpm for 10 minutes to give platelet poor plasma (PPP) as the supernatant. PRP was diluted with PPP so that the platelet count might be adjusted to about 500,000 cells/μl. 250 μl of this PRP was stirred at 37° C. for 2 minutes, and the test substance [the compound (6) obtained in Production Example 1] was added. The mixture was stirred again for 2 minutes, followed by the addition of PAF of a certain concentration. Platelet aggregation was measured with a platelet aggregometer (manufactured by Rika Denki Co. in Japan). The aggregation inhibition by the test substance was determined as the percentage of reduction from the maximal transmittance (the maximal aggregation) by PAF in the control PRP.

[2] = tested on: PAF-induced airway constriction; assay: Inhibition of PAF in tracheal obstruction (PAF-induced airway constriction); assay type: in vivo, guinea pig (Hartley); settings: 0.03 mg/kg i.v., two minutes before PAF (0.3 μg/kg i.v.)
Experimental: Male and female Hartley guinea pigs weighing about 400 g each were used. The animal was fixed in the supine position under anesthesia with urethane (1.5 g/kg, i.p.), one of the 4 branches of a cannula was inserted into the trachea, and two of the other 3 branches were connected to a respirator (Harvard apparatus rodent respirator). The last branch was connected to a bronchospasm transducer 7020 (Ugobasile). Air was pumped into the lung at the rate of 5 to 7 ml at a time and 70 times per minutes at the loading pressure to the lung of 10 cm H2 O, and the volume of the overflown air was recorded via a transducer on the Rectigraph (Rectigraph-8S, San-ei Sokki). After treatment with gallamine triethodide (1 mg/kg, i.v.), histamine dihydrochloride (10 μg/kg) was intravenously injected, and the responsiveness of the animal was investigated. Thirty seconds after intravenous injection of PAF (0.3 μg/kg), a maximal airway constriction was observed. Under the conditions, the test substance [the compound (6) obtained in the Production Example 1] was examined for its inhibitory action. The test substance was dissolved in physiological saline, and given intravenously two minutes before PAF administration.

[3] = tested on: death induced by anaphylactic shock; assay: Protective effect against death induced by anaphylactic shock in mice; assay type: in vivo; settings: Mus musculus, iv, 1 h; i.v. 5 min before rechallenge with BSA (1 mg/kg, i.v.); survival at 60 min; read-out: ED50 (protection from anaphylactic shock)
Experimental: Method: Male mice were sensitized with bovine serum albumin (BSA) and killed Bordetella pertussis. Two to three weeks later, the mice were rechallenged with BSA (1 mg/kg, i.v.). Survival rate was determined 60 min after the injection of BSA. The compound (6) obtained in the Production Example 1 was given i.v. 5. min. before the rechallenge with BSA.

PAF-induced hypotension = assay: Inhibitory action on PAF-induced hypotension in rats; assay type: in vivo, rat (Sprague-Dawley); settings: for Inhibition of hypotensive effect: PAF 1 μg/kg i.v.
Experimental: Male Sprague-Dawley rats weighing about 250 g were used. Cannulas were inserted into the unilateral femoral artery for measurement of blood pressure and into the unilateral femoral vein for administration of the drug solution. Blood pressure was measured via a pressure transducer and recorded on a polygraph. Blood pressure decrease was measured after intravenous (i.v.) injection of PAF at 1 μg/kg, and then the test substance [the compound (6) in Production Example 1] was given intravenously or orally; PAF at 1 μg/kg was given intravenously 5 minutes and 1, 2, 4, 6, and 8 hours after the intravenous injection, and 1, 2, 4, 6 and 8 hours after the oral administration, and the blood pressure decrease was measured.
The inhibitory action on PAF-induced hypotension was expressed in the ratio of decrement of blood pressure due to PAF before the treatment with the test substance (mmHg) to the decrement after the treatment with the test substance (mmHg).

Acute toxicity in mice = assay type: in vivo, mouse (Jcl-ICR)
Excerpt: Male J cl-ICR mice (5 animals) (aged 5 weeks) were used.

[4] = tested on: Reversed passive Arthus reaction; assay: Reversed passive Arthus reaction in rat; assay type: in vivo, rat (Sprague-Dawley); settings: iv, given intravenously, read-out: ID50 (inhibition of Arthus reaction, area stained blue)
Experimental: Hair was removed at the back of a male Sprague-Dawley rat (7-week-old, weighing about 250 g) under slight anesthesia with ether and a solution of the test substance [the compound (6) obtained in the Production Example 1] in physiological saline was injected into the caudal vein at the dose of 0.2 ml per 100 g of body weight. Immediately 1 ml of 0.5% antigenic egg albumin solution in physiological saline was injected into the caudal vein. Immediately 0.1 ml of the rabbit anti-egg albumin antiserum (containing 6 mg protein antibody/ml) was given subcutaneously at a site each on the right and the left side of the back. Three hours later, 1 ml of 1% Evans Blue solution in physiological saline was injected intravenously, the skin was removed after 30 minutes, and the area stained blue was measured (in mm^2). The extent of inhibition was calculated by comparing the area with that in the group without treatment with the test substance.

[5] = tested on: endotoxin (ET)-induced hypotension; assay: Reversal of endotoxin (ET)-induced hypotension in rats; assay type: in vivo, rat (SD); settings: Rattus norvegicus, iv; given eight minutes after ET (15 mg/kg)
Experimental: Method: Male SD rats were anesthetized with sodium pentobarbital, and the right femoral artery and left femoral vein were cannulated for blood pressure measurement and for injection of the compound (6) obtained in the Production Example 1 or ET (E. Coli, 0111, B4), respectively. The compound (6) obtained in the Production Example 1 was given eight minutes after the injection of ET (15 mg/kg).

acute renal failure = assay: Effect on acute renal failure in rats (renal artery occlusion/reperfusion); assay type: in vivo, rat (Sprague Dawley (Jcl)); settings: 30 mg/kg oral, 1 hour prior to occlusion
Experimental: Method: Male Sprague Dawley (Jcl) rats, 5 weeks old, were anesthetized with sodium pentobarbital (50 mg/kg, i.p.) and the renal artery was occluded bilaterally for 45 minutes followed by reperfusion for 20 hours. The blood was collected from the abdominal aorta under anesthesia for measurement of blood urea nitrogen (BUN).
Results: The concentration of BUN was markedly elevated 20 hours after reperfusion.

[6] = tested on: endotoxin-induced disseminated intravascular coagulation (DIC); assay: Inhibition of experimental disseminated intravascular coagulation (DIC) in rats; assay type: in vivo, rat (SD)
Experimental: Method: Male SD rats were anesthetized with sodium pentobarbital. Endotoxin (E. Coli, 0111, B4) (ET) was infused into the right femoral vein at a rate of 250 μg/kg/hr for 4 hr. The compound (6) obtained in the Production Example 1 (Test compound) at a dose of 200 μg/kg was given i.v. bolus 5 min. before the infusion of ET and was then infused at a rate of 200 μg/kg/hr for 4 hr.

[7] = Stability test in the form of powders (30 days of storage, HPLC content); assay type: physicochemical; settings: for remaining at 720 h: 30 days, powder in closed glass bottles, read-out: remaining percentage
Experimental: The compounds obtained were examined for their stability in the form of powders. […] Procedure: About 100 mg each of the test substance was placed into glass bottles, which were then closed tightly and kept at room temperature (20±2° C.) and at 40° C. (not for the control compound) for 30 days. Determination of the content: An aliquot of the test substance was dissloved in the mobile phase for high performance liquid chromatography [acetonitrile:methanol:0.1% phosphoric acid=900:240:2100] and the content was determined by HPLC.
Conditions of HPLC: column YMC ODS A302 4.6×150 mm

[8] = tested on: endotoxin (ET)-induced death; assay: Inhibition of endotoxin (ET)-induced death in rats; assay type: in vivo, rat (SD)
Experimental: Method: Male SD rats were used. ET (E. Coli, 0111, B4) (15 mg/kg) was given i.v. 5 min after the injection of the compound (6) obtained in the Production Example 1.

CCC[n+]1cc(Br)cc(C(=O)N(CCC(=O)NCCOC(=O)N2CCc3ccccc3C2)c2ccccc2)c1.O=[N+]([O-])[O-] [Compound (6), 3-bromo-5-[N-phenyl-N-[2-[[2-(1,2,3,4-tetrahydro-2-isoquinolylcarbonyloxy)ethyl]carbamoyl]ethyl]carbamoyl]-1-propylpyridinium nitrate]
inhibition at 3 µM ([1]; 3 × 10^-6 M): 100%
inhibition at 0.3 µM ([1]; 3 × 10^-7 M): 100%
inhibition at 0.03 µM ([1]; 3 × 10^-8 M): 71%
inhibition of PAF-induced airway constriction [2]: 91.3%
ED50 [3]: 2.6 µg/kg
Inhibition of hypotensive effect (PAF-induced hypotension; 0.01 mg/kg i.v., 5 minutes): 93%
Inhibition of hypotensive effect (PAF-induced hypotension; 0.01 mg/kg i.v., 1 hour): 84%
Inhibition of hypotensive effect (PAF-induced hypotension; 0.01 mg/kg i.v., 2 hour): 68%
Inhibition of hypotensive effect (PAF-induced hypotension; 0.01 mg/kg i.v., 4 hour): 48%
Inhibition of hypotensive effect (PAF-induced hypotension; 0.01 mg/kg i.v., 6 hour): 44%
Inhibition of hypotensive effect (PAF-induced hypotension; 0.01 mg/kg i.v., 8 hour): 24%
Inhibition of hypotensive effect (PAF-induced hypotension; 1 mg/kg p.o., 1 hour): 69%
Inhibition of hypotensive effect (PAF-induced hypotension; 1 mg/kg p.o., 2 hour): 87%
Inhibition of hypotensive effect (PAF-induced hypotension; 1 mg/kg p.o., 4 hour): 82%
Inhibition of hypotensive effect (PAF-induced hypotension; 1 mg/kg p.o., 6 hour): 76%
Inhibition of hypotensive effect (PAF-induced hypotension; 1 mg/kg p.o., 8 hour): 69%
PAF-antagonism after oral administration (in words) (PAF-induced hypotension; general statement, oral): excellent PAF-antagonism even after oral administration
death until one week later (acute toxicity, intravenous) (Acute toxicity in mice; 10 mg/kg intravenously, male mice, 5 animals): no death was observed
death until one week later (acute toxicity, oral) (Acute toxicity in mice; 1000 mg/kg orally, male mice, 5 animals): no death was observed
toxicity (in words) (Acute toxicity in mice; general statement): low toxicity
ED50 [4]: 1.2 µg/kg
ED50 [5]: 1.2 µg/kg
effect on elevation of BUN (in words) (acute renal failure): inhibited significantly the elevation of BUN
Blood urea nitrogen (BUN) (acute renal failure; 20 hours after reperfusion, P<0.05, control 110 ± 4): 88 ± 2 mg/dL
Fybrinogen ([6]; 200 μg/kg before ET, then 200 μg/kg/hr for 4 hr, P<0.01 vs control, control 0.3 ± 0.1, normal 2.7 ± 0.1): 1.2 ± 0.3 mg/ml plasma
FDP ([6]; 200 μg/kg before ET, then 200 μg/kg/hr for 4 hr, P<0.01 vs control, control 16.8 ± 2.3, normal 0.5 ± 0.0): 4.6 ± 0.8 μg/ml plasma
PT (prothrombin time) ([6]; 200 μg/kg before ET, then 200 μg/kg/hr for 4 hr, P<0.01 vs control, control 18.9 ± 1.3, normal 11.2 ± 0.2): 14.0 ± 0.4 s
Platelets ([6]; 200 μg/kg before ET, then 200 μg/kg/hr for 4 hr, P<0.01 vs control, control 23 ± 3, normal 71 ± 3): 40 ± 4 × 10^4 /μl
APTT (activated partial thromboplastin time) ([6]; 200 μg/kg before ET, then 200 μg/kg/hr for 4 hr, P<0.01 vs control, control 58.3 ± 3.6, normal 35.3 ± 1.3): 42.8 ± 1.5 s
effect on changes in DIC parameters (in words) ([6]; 200 μg/kg i.v. bolus + 200 μg/kg/hr for 4 hr): significantly inhibited the changes in these DIC parameters
stability (in words) ([7]; general statement, compared with the corresponding chloride): more stable than the corresponding chloride
remaining at 720 h ([7]; powder, closed glass bottles, at 40° C.): 99.3%
remaining at 720 h ([7]; powder, closed glass bottles, at room temperature (20±2° C.)): 100%
Survival rate ([8]; 10 μg/kg i.v. 5 min before ET 15 mg/kg i.v., 6 day): 30%
Survival rate ([8]; 100 μg/kg i.v. 5 min before ET 15 mg/kg i.v., 22 hr, P<0.05 vs control): 60%
Survival rate ([8]; 100 μg/kg i.v. 5 min before ET 15 mg/kg i.v., 6 day, P<0.05 vs control): 40%
effect on survival rate of rats (in words) ([8]; 100 μg/kg, almost 1 week): significantly improved the survival rate

CCC[n+]1cc(Br)cc(C(=O)N(CCC(=O)NCCOC(=O)N2CCc3ccccc3C2)c2ccccc2)c1 [Compound (7), 3-Bromo-5-[N-phenyl-N-[2-[[2-(1,2,3,4-tetrahydro-2-isoquinolylcarbonyloxy)ethyl]carbamoyl]ethyl]carbamoyl]-1-propylpyridinium chloride, reference compound]
remaining at 720 h ([7]; at room temperature (20±2° C.)): 65%
